Source: patent publication US20190328670A1, “Microparticles for Oral Delivery” (Intervet Inc., priority 2004, published 2019)

Test: Oral bioavailability in rats compared with conventional formulations
Type: in vivo
Protocol: Glyceryl tricaprylate and tricaprate mixture solutions containing these drugs are admixed in complex slurry according to Example 1 and recovered as free-flowing powders as in Example 2. […] Oral bioavailability is tested in rats and compared with those from other conventional formulations.
A soy oil solution containing 100 parts per million of triclosan is admixed in a complex slurry containing 100 parts per million of chlorhexidine according to Example 1. Microbeads are then produced and recovered as free-flowing powders as in Example 2. […] Oral bioavailability is tested in rats and compared with those from other conventional formulations.

Row | Gastrointestinal absorption (rat, in vivo, po) | Gastrointestinal absorption (rats, oral, from the microbeads/microcapsules versus powders, granules, or oil solution) | SMILES
1 | more efficient | – | [H]/N=C(\N/C(=N/[H])NCCCCCCNC(=N)NC(=N)Nc1ccc(Cl)cc1)Nc1ccc(Cl)cc1 [chlorhexidine]
2 | – | more efficient | Oc1cc(Cl)ccc1Oc1ccc(Cl)cc1Cl [triclosan]
